This assay concerns H3K23 acetylation in U-2 OS cells. Nature of the assay: U2OS cell H3K23 acetylation IF assay (immunofluorescence). The format is cell-based. Particulars: Homo sapiens; for pIC50: 24 h incubation, read-out: H3K23 ac/IC50; for Emax: inhibition of H3K23 acetylation, 24 h, read-out: Maximum inhibition rate/Imax %. The procedure:
Test Example 3: U2OS Cell H3K23 Acetylation IF Assay (Immunofluorescence)
I. Reagents and Instruments
• 1. U-2 OS (ATCC HTB-96) • 2. Recombinant anti-histone H3 (acetyl K23) antibody (Abcam, ab177275) • 3. Goat anti-rabbit IgG (H+L), Superclonal™ recombinant secondary antibody, Alexa Fluor 488 (Thermofisher, A27034) • 4. Hoechst 33342 (Sigma-Aldrich, B2261-25MG) • 5. Assay plate, 96-well, black with clear bottom (Corning, 3603) • 6. Bovine serum albumin (BSA) (Sangon Biotech, A500023-0100) • 7. Methanol (GENERAL-REAGENT, G75851D) • 8. Tween-20 (Sangon, A100777-0500) • 9. Triton X-100 (Solarbio, T8200) • 10. PBS (Shanghai BasalMedia Technologies Co., Ltd., B320KJ) • 11. 20×PBS buffer (Sangon Biotech, B548117-0500) • 12. McCoy's 5A medium (Gibco, 16600082) • 13. 0.25% trypsin-EDTA (1×) (Gibco, 25200-072) • 14. Pen strep (Gibco, 15140-122) • 15. DPBS (1×) (Gibco, 14190-144) • 16. FBS (Gibco, 10091148) • 17. Automatic cell counter (Countstar, IC1000) • 18. Thermostatic incubator (Thermo, 1160) • 19. ImageXpress® Micro Confocal (Molecular Device)
a. Blocking buffer: PBS (Shanghai BasalMedia)+BSA (final concentration of 1%)+Triton X-100 (final concentration of 0.5%).
b. Wash buffer: PBS (20×PBS was diluted to 1×PBS)+Tween-20 (final concentration of 0.1%).
c. Primary antibody solution: Recombinant anti-histone H3 (acetyl K23) antibody was diluted in blocking buffer at a ratio of 1:1000.
d. Secondary antibody solutions: Goat anti-rabbit IgG (H+L), Superclonal™ recombinant secondary antibody, Alexa Fluor 488 was diluted in blocking buffer at a ratio of 1:1000, and Hoechst 33342 was diluted in blocking buffer at a ratio of 1:5000.
e. Compounds: initial concentration of 100 μM, 3-fold dilution, 9 gradient concentrations. All compound concentrations were diluted 500-fold with McCoy's 5A medium for later use.
2. Experimental Procedure
2.1. Cell Treatment (Day One)
a. The state of U-2 OS cells was observed under a microscope to make sure that the cell confluence was about 90%.
b. The cell supernatant was discarded. The cells were rinsed with DPBS once, and the DPBS was removed. The cells were digested with a proper amount of trypsin and left to stand at room temperature or 37° C. for 5 min.
c. The digestion was stopped with an equal volume of medium containing 10% FBS, and the cell suspension was collected and centrifuged at 300 g for 3 min. The cells were suspended in a proper amount of fresh medium.
d. The resulting cell suspension was collected and cell counting was performed.
e. The cell suspension was diluted and plated at 9000 cells/50 μL/well.
f. The wells on the periphery were blocked with 100 μL of PBS.
g. The cell culture plates were incubated overnight in a 37° C., 5% carbon dioxide incubator.
2.2. Compound Addition (Day Two)
a. 50 μL of diluted compound was added to the cell supernatant (50 μL/well) in each cell plate.
b. After the addition, the cell plates were incubated in a 37° C., 5% carbon dioxide incubator for 24 h.
2.3. Immunofluorescence Staining and Measurement (Day Three to Day Four)
a. After the 24-hour incubation, the cell plates were removed from the incubator. The medium was discarded, and plates were fixed with pre-cooled methanol at room temperature for 10 min.
b. The fixation buffer was discarded, and the plates were quickly washed with wash buffer 3 times and then slowly washed 3 times (5 min/wash).
c. The wash buffer was discarded, and blocking buffer was added. The plates were incubated at room temperature for 60 min.
d. The blocking buffer was discarded, and the prepared primary antibody solution was added. The plates were incubated overnight at 4° C.
e. The primary antibody solution was discarded, and the prepared secondary antibody solution was added. The plates were incubated at room temperature for 60 min.
f. The secondary antibody solution was discarded, and the plates were quickly washed with wash buffer 3 times and then slowly washed 5 times (5 min/wash).
g. The plates were tested on ImageXpress® Micro Confocal.
h. […]

pIC50: −log10 of the molar value.

Consider `COc1ccc(F)cc1S(=O)(=O)Nc1noc2cc(Cn3cccn3)c3c(c12)OCCC3` [Compound 9, N-(5-((1H-pyrazol-1-yl)methyl)-3,4-dihydro-2H-chromeno[8,7-d]isoxazol-9-yl)-5-fluoro-2-methoxybenzenesulfonamide], for which the pIC50 was 9.12 and the Emax came out at 99.5%.

Turning to `COc1cccc(OC(F)(F)F)c1S(=O)(=O)Nc1noc2cc(Cn3cccn3)c3c(c12)OCCC3` [Compound 10, N-(5-((1H-pyrazol-1-yl)methyl)-3,4-dihydro-2H-chromeno[8,7-d]isoxazol-9-yl)-2-methoxy-6-(trifluoromethoxy)benzenesulfonamide], the pIC50 is 8.92 and the Emax is 106%.

For `COc1cccc(OC)c1S(=O)(=O)Nc1noc2cc(Cn3cccn3)c3c(c12)OCCC3` [Compound 2, N-(5-((1H-pyrazol-1-yl)methyl)-3,4-dihydro-2H-chromeno[8,7-d]isoxazol-9-yl)-2,6-dimethoxybenzenesulfonamide], the pIC50 was 9.40 and the Emax is 98.5%.

On to `CCOc1cc(C)ccc1S(=O)(=O)Nc1noc2cc(Cn3cccn3)c3c(c12)OCCC3` [Compound 7, N-(5-((1H-pyrazol-1-yl)methyl)-3,4-dihydro-2H-chromeno[8,7-d]isoxazol-9-yl)-2-ethoxy-4-methylbenzenesulfonamide], for which the pIC50 was 8.85 and the Emax was 97.4%.

In the case of `COc1ccccc1S(=O)(=O)Nc1noc2cc(Cn3cccn3)c3c(c12)OCCC3` [Compound 3, N-(5-((1H-pyrazol-1-yl)methyl)-3,4-dihydro-2H-chromeno[8,7-d]isoxazol-9-yl)-2-methoxybenzenesulfonamide], the pIC50 is 9.05 and the Emax turned out to be 106%.

For the molecule `COc1cccc(OC)c1S(=O)(=O)Nc1noc2cc(Cn3cccn3)c3c(c12)OCC3` [Compound 1, N-(4-((1H-pyrazol-1-yl)methyl)-2,3-dihydrobenzofuro[7,6-d]isoxazol-8-yl)-2,6-dimethoxybenzenesulfonamide], the pIC50 was 8.96 and the Emax came to 102%.

In the case of `COc1ccccc1S(=O)(=O)Nc1noc2cc(Cn3cccn3)c3c(c12)OCC3` [Compound 20, N-(4-((1H-pyrazol-1-yl)methyl)-2,3-dihydrobenzofuro[7,6-d]isoxazol-8-yl)-2-methoxybenzenesulfonamide], the pIC50 is 8.34 and the Emax was 99.4%.

For the molecule `Cc1ccc(S(=O)(=O)Nc2noc3cc(Cn4cccn4)c4c(c23)OCCC4)c(OCC(F)(F)F)c1` [Compound 8, N-(5-((1H-pyrazol-1-yl)methyl)-3,4-dihydro-2H-chromeno[8,7-d]isoxazol-9-yl)-4-methyl-2-(2,2,2-trifluoroethoxy)benzenesulfonamide], the pIC50 was 8.55 and the Emax was 99.4%.

As to `COc1cccc(OC)c1S(=O)(=O)Nc1noc2cc(Cn3cccn3)c3c(c12)OC(F)(F)O3` [Compound 5, N-(4-((1H-pyrazol-1-yl)methyl)-2,2-difluoro-[1,3]dioxolo[4′,5′:5,6]benzo[1,2-d]isoxazol-8-yl)-2,6-dimethoxybenzenesulfonamide], the pIC50 is 9.22 and the Emax was 104%.
